Paper PMC6272238, “Synthesis and Pharmacophore Modelling of 2,6,9-Trisubstituted Purine Derivatives and Their Potential Role as Apoptosis-Inducing Agents in Cancer Cell Lines” (Molecules, 2015)

What was measured:
H1975 (lung) cells = assay: MTT cytotoxicity assay on H1975 cells; assay type: cell-based, human; conditions: for IC50: MTT, 72 h continuous exposure, triplicate, range 0.05 to 50 µM; for Selectivity Index (SI) (Vero/H1975): ratio IC50 (Vero)/IC50 (H1975)
Experimental: (§1) The potential in vitro antitumor activity of compounds 4a–l was initially tested for their cytotoxic effects on H1975, HL-60, HCT116 and HeLa cancer cell lines and Vero cells. […]
(§2) Cancer cell lines were grown at 37 °C in humidified atmosphere and 5% CO2. H1975, HL60, HTC116 and Vero cells were grown in RPMI 1640 culture medium supplemented with 10% fetal bovine serum and (100 UI/mL) penicillin-streptomicyn. HeLa cells were grown in EMEM culture medium, supplemented with 10% fetal bovine serum and (100 UI/mL) penicillin-streptomicyn.
(§3) Cytotoxicity assays were performed by using the MTT reduction method as described previously. Briefly, cancer cell lines were plated in a flat-bottom 96-wells plate at 10,000 cells per well density. […] Ten µL of MTT was added at a final concentration of 0.5 mg/mL, incubated at 37 °C for 4 h, and then solubilized with 10% sodium dodecyl sulfate (SDS) in 0.1 mM HCl and incubated overnight at 37 °C. Formazan formation was measured at 570 nm in a multiwell reader (StatFax 4200, Awareness Technology, Inc. Palm City, FL, USA).
(§4) Values are expressed as means ± standard deviations from three independent experiments. IC50 values, (Compound concentration necessary to decrease at 50% the MTT reduction) and the two-way analysis of variance (ANOVA) test were performed when necessary with Prism GraphPad 6.0f software (GraphPad Software Inc., San Diego, CA, USA).

HeLa cells [1] = assay: MTT cytotoxicity assay on HeLa cells; assay type: cell-based, human; conditions: for IC50: MTT, 72 h continuous exposure, triplicate, range 0.05 to 50 µM; for Selectivity Index (SI) (Vero/HeLa): ratio IC50 (Vero)/IC50 (HeLa)
Experimental: as §1, §2, §3, §4

Vero cells = assay: MTT cytotoxicity assay on Vero cells; assay type: cell-based; conditions: Chlorocebus sabaeus, 72 h continuous exposure, triplicate, range 0.05 to 50 µM
[2] = system: HCT116 (colorectal) cells; assay: MTT cytotoxicity assay on HCT116 cells; assay type: cell-based, human; conditions: for IC50: MTT, 72 h continuous exposure, triplicate, range 0.05 to 50 µM; for Selectivity Index (SI) (Vero/HCT116): ratio IC50 (Vero)/IC50 (HCT116)
Experimental: as §1, §2, §3, §4

HL-60 (leukemia) cells = assay: MTT cytotoxicity assay on HL-60 cells; assay type: cell-based, human; conditions: 72 h continuous exposure, triplicate, range 0.05 to 50 µM
Experimental: as §1, §2, §3, §4

HTC116 cells = assay: Apoptosis/viability assay by FACS with propidium iodide, HTC116; assay type: cell-based, human; conditions: HTC116, 50 µM, 16 h, PI staining
Experimental: (§5) To evaluate sensitivity to 4f, 4j and 4k, Vero, HTC116, H1975 and Hela were treated with concentrations of 50 µM for 16 h. Fifty µM etoposide was used as positive control. As it can be seen in Figure 5, 4f, 4j and 4k induced apoptosis as a prevalent type of cell death, in high percentages (>70%), in every cancer cell line. Moreover, 4f, 4j, and 4k induced an apoptotic cell response greater than etoposide.
(§6) Cell viability was analyzed by FACS as previously described. In this assay, after setting the baseline to exclude cell debris, cells impermeable to propidium iodide (PI negative) are considered as viable. Two populations of PI-permeable dead cells are distinguished based on fluorescence intensity, corresponding to either hypodiploid apoptotic cells or necrotic cells with intact DNA. Here, H1975, HTC116, and HeLa cells were incubated with concentrations of 50 µM of each compound for 16 h at 37 °C. Cells were harvested and stained with 10 µg/mL of propidium iodide to determine cell viability. Samples containing roughly 1 × 10^4 cells were evaluated by flow cytometry (FACScanto II; Becton Dickinson, Mountain View, CA, USA) and analyzed using the software program FCS Express v5.

HeLa cells [3] = assay: Apoptosis/viability assay by FACS with propidium iodide, HeLa; assay type: cell-based, human; conditions: 50 µM, 16 h, PI staining
Experimental: as §5, §6

H1975 cells = assay: Apoptosis/viability assay by FACS with propidium iodide, H1975; assay type: cell-based, human; conditions: H1975, 50 µM, 16 h, PI staining
Experimental: as §5, §6

| SMILES | IC50 (H1975 (lung) cells; Homo sapiens, NCI-H1975, 72 h) | Selectivity Index (SI) (Vero/H1975) (H1975 (lung) cells) | IC50 (HeLa cells [1]; Homo sapiens, HeLa, 72 h) | Selectivity Index (SI) (Vero/HeLa) (HeLa cells [1]) | IC50 (Vero cells) | IC50 ([2]; Homo sapiens, HCT-116, 72 h) | Selectivity Index (SI) (Vero/HCT116) [2] | IC50 (HL-60 (leukemia) cells; Homo sapiens, HL-60, 72 h) | melting point | IC50 (H1975 (lung) cells) | IC50 (HeLa cells [1]) | IC50 [2] | IC50 (HL-60 (leukemia) cells) | apoptosis (percentage of cells) (HTC116 cells) | apoptosis (percentage of cells) (HeLa cells [3]) | apoptosis (percentage of cells) (H1975 cells) |
| --- | --- | --- | --- | --- | --- | --- | --- | --- | --- | --- | --- | --- | --- | --- | --- | --- |
| CC(C)n1cnc2c(NCc3ccccc3)nc(NCc3ccccc3)nc21 [Compound 4a, N^2,N^6-Dibenzyl-9-isopropyl-9H-purine-2,6-diamine] | 14 ± 0.26 µM | 1.43 | 32 ± 0.13 µM | 0.63 | 20 ± 0.11 µM | 13 ± 0.12 µM | 1.54 | 26 ± 0.13 µM |  |  |  |  |  |  |  |  |
| CCCCn1cnc2c(NCc3ccccc3)nc(NCc3ccccc3)nc21 [Compound 4b, N^2,N^6-Dibenzyl-9-butyl-9H-purine-2,6-diamine] | 28 ± 0.08 µM | 0.20 | 18 ± 0.14 µM | 0.31 | 5.6 ± 0.15 µM | 7.2 ± 0.16 µM | 0.78 | > 50 µM | 113 to 115 °C |  |  |  |  |  |  |  |
| CC(C)Cn1cnc2c(NCc3ccccc3)nc(NCc3ccccc3)nc21 [Compound 4c, N^2,N^6-Dibenzyl-9-isobutyl-9H-purine-2,6-diamine] | > 36 µM | 0.61 | > 36 µM |  | 22 ± 0.23 µM | > 36 µM |  | > 36 µM | 111 to 113 °C | 36 ± 0.27 µM | > 50 µM | > 50 µM | > 50 µM |  |  |  |
| CCCCCn1cnc2c(NCc3ccccc3)nc(NCc3ccccc3)nc21 [Compound 4d, N^2,N^6-Dibenzyl-9-pentyl-9H-purine-2,6-diamine] | 12 ± 0.19 µM | 0.21 | 10.1 ± 0.14 µM | 0.25 | 2.5 ± 0.2 µM | 11 ± 0.11 µM | 0.23 | > 50 µM | 83 to 86 °C |  |  |  |  |  |  |  |
| CC(C)CCn1cnc2c(NCc3ccccc3)nc(NCc3ccccc3)nc21 [Compound 4e, N^2,N^6-Dibenzyl-9-isopentyl-9H-purine-2,6-diamine] | 8.6 ± 0.18 µM | 0.29 | 2.7 ± 0.13 µM | 0.93 | 2.5 ± 0.14 µM | 5.1 ± 0.14 µM | 0.49 | > 50 µM | 69 to 70 °C |  |  |  |  |  |  |  |
| CCCCCCn1cnc2c(NCc3ccccc3)nc(NCc3ccccc3)nc21 [Compound 4f, N^2,N^6-Dibenzyl-9-hexyl-9H-purine-2,6-diamine] | 9.9 ± 0.18 µM | 2.63 | 5.3 ± 0.13 µM | 4.91 | 26 ± 0.12 µM | 3 ± 0.12 µM | 8.67 | > 50 µM |  |  |  |  |  | > 70% | > 70% | > 70% |
| COc1ccc(CNc2nc(NCc3ccccc3)nc3c2ncn3C(C)C)cc1 [Compound 4g, N^2-Benzyl-9-isopropyl-N^6-(4-methoxybenzyl)-9H-purine-2,6-diamine] | > 50 µM |  | 10.7 ± 0.18 µM | 1.40 | 15 ± 0.23 µM | 7.1 ± 0.11 µM | 2.11 | 22 ± 0.13 µM | 69 to 70 °C |  |  |  |  |  |  |  |
| CCCCn1cnc2c(NCc3ccc(OC)cc3)nc(NCc3ccccc3)nc21 [Compound 4h, N^2-Benzyl-9-butyl-N^6-(4-methoxybenzyl)-9H-purine-2,6-diamine] | 11 ± 0.25 µM |  | 6.3 ± 0.17 µM |  | 17 ± 0.2 µM | 7 ± 0.16 µM |  | > 50 µM |  |  |  |  |  |  |  |  |
| COc1ccc(CNc2nc(NCc3ccccc3)nc3c2ncn3CC(C)C)cc1 [Compound 4i, N^2-Benzyl-9-isobutyl-N^6-(4-methoxybenzyl)-9H-purine-2,6-diamine] | 3.4 ± 0.28 µM | 0.56 | 4.9 ± 0.16 µM | 0.39 | 1.9 ± 0.24 µM | 1.6 ± 0.12 µM | 1.19 | > 50 µM | 110 to 112 °C |  |  |  |  |  |  |  |
| CCCCCn1cnc2c(NCc3ccc(OC)cc3)nc(NCc3ccccc3)nc21 [Compound 4j, N^2-Benzyl-N^6-(4-methoxybenzyl)-9-pentyl-9H-purine-2,6-diamine] | 2.3 ± 0.13 µM | 11.30 | 9.5 ± 0.14 µM | 2.74 | 26 ± 0.18 µM | 8 ± 0.21 µM | 3.25 | > 50 µM |  |  |  |  |  | > 70% | > 70% | > 70% |
| COc1ccc(CNc2nc(NCc3ccccc3)nc3c2ncn3CCC(C)C)cc1 [Compound 4k, N^2-Benzyl-9-isopentyl-N^6-(4-methoxybenzyl)-9H-purine-2,6-diamine] | 5.6 ± 0.23 µM | 6.07 | 5.4 ± 0.32 µM | 6.30 | 34 ± 0.13 µM | 11 ± 0.26 µM | 3.09 | > 50 µM |  |  |  |  |  | > 70% | > 70% | > 70% |
| CCCCCCn1cnc2c(NCc3ccc(OC)cc3)nc(NCc3ccccc3)nc21 [Compound 4l, N^2-Benzyl-9-hexyl-N^6-(4-methoxybenzyl)-9H-purine-2,6-diamine] | > 50 µM |  | 9 ± 0.13 µM |  | 15 ± 0.06 µM | 6.8 ± 0.14 µM |  | > 50 µM |  |  |  |  |  |  |  |  |
| COc1cc([C@@H]2c3cc4c(cc3[C@@H](O[C@@H]3O[C@@H]5CO[C@@H](C)O[C@H]5[C@H](O)[C@H]3O)[C@H]3COC(=O)[C@H]23)OCO4)cc(OC)c1O [Etoposide, reference compound] | 8 ± 0.33 µM |  | 8.2 ± 0.33 µM |  | > 25 µM | 2.8 ± 0.24 µM |  | 6.2 ± 0.18 µM |  |  |  |  |  |  |  |  |
